“Also recorded” adds a separate entry of the source. Like-named read-outs stand apart in the source and are kept apart here.
How the values were obtained:
[1] = biological target: T1, DC-SIGN CRD (Homo sapiens, UniProt Q9NNX6); test: Surface plasmon resonance (SPR) binding to immobilised DC-SIGN CRD; conditions: for KD (μM) / Kd: Kd=koff/kon
T1 construct: human DC-SIGN (Lys62-Ala404, from R§D Systems); purchased R&D Systems ('R§D Systems' [sic])
T1 sequence (Q9NNX6 62-404): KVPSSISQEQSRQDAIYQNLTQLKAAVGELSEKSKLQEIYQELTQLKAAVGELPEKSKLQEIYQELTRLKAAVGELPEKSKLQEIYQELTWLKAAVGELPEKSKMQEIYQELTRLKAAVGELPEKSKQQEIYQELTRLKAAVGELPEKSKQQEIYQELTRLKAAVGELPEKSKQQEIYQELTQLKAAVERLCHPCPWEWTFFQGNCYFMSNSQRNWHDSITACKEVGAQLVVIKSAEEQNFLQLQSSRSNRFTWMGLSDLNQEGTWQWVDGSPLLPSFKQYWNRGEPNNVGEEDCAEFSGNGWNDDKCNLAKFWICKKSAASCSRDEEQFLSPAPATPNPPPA
Method: SPR experiments were performed using a Biacore 3000. […] Biosensor assays were performed with HEPES-buffered saline (10 mM HEPES, 150 mM sodium chloride, pH 7.4) containing 0.005% surfactant P20 and 5 mM CaCl2 as a running buffer. All binding experiments were carried out at 25° C. with a constant flow rate of 20 μl/min. The different compounds dissolved in the running buffer (0.39 to 50 μM) were injected for 3 min, followed by a dissociation phase of 3 min. The sensor chip surface was regenerated after each experiment by injecting 10 μL of EDTA 0.5 M pH 8.0. A simple channel activated by EDC/NHS and deactivated with ethanolamine was used as control. The kinetic parameters were calculated using the BlAeval 4.1 software. Analysis was performed using the simple Langmuir binding model with separate ka/kd (kon/koff). The specific binding profiles were obtained after subtracting the response signal from the control channel and from blank-buffer injection. The fitting to each model was judged by the chi square value and randomness of residue distribution compared to the theoretical model (Langmuir binding 1:1).
The binding affinity of mannoside derivatives for the carbohydrate recognition domain (CRD) of DC-SIGN was assessed by surface plasmon resonance (SPR).
A CM5 sensor chip was functionalized with the DC-SIGN CRD, and increasing concentrations of the various compounds, mannan as a positive control and octaethyleneglycol (OEG) as a negative control, were injected over the chip surface. The association (kon) and dissociation (koff) rate constants and the resulting dissociation equilibrium constant (Kd=koff/kon) for each assessed compound were determined (see Table 1 hereunder).

[2] = Critical micelle concentration (CMC), pyrene fluorescent probe; assay type: physicochemical; conditions: in water
Method: DiManinsatC24 was prepared according a procedure similar to that used for the preparation of TriDiManC24 except that: • pentacosanoic acid was replaced by 10,12-pentacosadiynoic acid, and • before the coupling with 10,12-pentacosadiynoic acid, the benzyl groups of compound 33 were replaced by acetyl group so as to provide compound 108 (as illustrated in FIG. 3E). ^1H NMR δ(ppm) (MeOD, 400 MHz) 4.87 (s, 3H), 4.73 (s, 3H), 3.64-3.50 (m, 14H), 3.46-3.20 (m, 76H), 2.97-2.93 (m, 6H), 2.33 (t, 6H, J=6.8 Hz), 2.09-1.96 (m, 6H), 1.08-1.05 (m, 32H), 0.66 (t, 3H, J=6.8 Hz). ^13C NMR δ (ppm) (MeOD, 100 MHz) 173.7, 168.8, 104.2, 101.2, 80.6, 80.4, 75.1, 74.7, 72.5, 72.2, 72.1, 71.9, 71.8, 71.7, 71.6, 71.4, 69.4, 69.1, 68.9, 68.7, 68.6, 68.0, 63.2, 63.1, 42.2, 37.0, 34.8, 33.7, 33.1, 30.8, 30.7, 30.6, 30.5, 30.4, 30.2, 29.5, 28.1, 27.0, 26.0, 23.7, 19.7, 14.4. […] The hydrodynamic diameters of micelles of glycolipids were measured in water using a Zetasizer Nano ZS system (Malvern Instruments). The CMCs were measured using pyrene as an extrinsic fluorescent probe and were carried out as described (Perino et al., 2011). […] Fluorescent emission of pyrene was measured at 25° C. using a Fluorolog spectrofluorometer (Jobin Yvon, Horiba). The intensities of fluorescence emission were determined at 374 nm (I374) and at 383 nm (I383), with an excitation at a 339 nm wavelength. […]

[3] = system: HIV-1 R5; test: HIV-1 R5 trans-infection of MAGI-CCR5 cells mediated by DCs; assay type: cell-based
Method: ManC1, […] (comparative) and compounds of the invention (ManC24, ManC17, TriManC24, TriDiManC24, TriManinsatC24 and ManinsatC24) were serially diluted in water. Human DCs (1×10^5 in 200 μl ) were pre-treated with different concentrations of compounds, or mannan (Sigma) or culture medium alone, in RPMI 1640 medium containing 10% FBS for 45 min at 37° C., prior infection with HIV-1 (100 ng of p24Gag) for 3 h. Excess free virus and molecules were removed by three washes. DCs were then cocultured with MAGI -CCR5 cells (1×10^5) at 37° C. plated in a 48-well plate. After two days, viral infection of MAGI-CCR5 cells was quantitated following beta-galactosidase assays and enumerating blue cells by light microscopy.
The IC50 were determined by serial dilution of each compound. The trans-infection assays were repeated a minimum of three times, and the IC50 determined using KaleidaGraph.
To investigate the ability of the compounds of the invention to inhibit HIV-1 trans infection, we chose to infect human DCs in order to best mimic in vivo conditions. Human DCs were exposed to different compounds (namely, Mannan (control), ManC1 (comparative), ManC11 (comparative), ManC17, ManC24, TriManC24, TriDiManC24, ManinsatC24 and TriManinsatC24) for 45 min at 37° C., before inoculation with HIV-1 (strains R5 and X4) for 3 hours. After extensive washings to remove unbound virions and mannosides, DCs were then co-cultured with MAGI-CCR5 cells. This procedure allows precise quantification of HIV-1 replication in reporter MAGI-CCR5 cells by detection of beta-galactosidase activity. These cells express an integrated copy of the HIV long terminal repeat (LTR) fused to the beta-galactosidase reporter gene, and express the CD4 receptor and the CCR5 and CXCR4 co-receptors, required for entry of HIV-1 R5 and X4 respectively. Upon viral entry leading to viral Tat expression and activation of the LTR, these cells permit quantification of HIV trans-infection after two days.

[4] = system: Dengue virus 2 (DV2); test: Dengue virus (DV2) cis-infection of human DCs; assay type: cell-based; conditions: for percentage of infected DCs: 48 hours
Method: Compounds of the invention (TriManC24, TriManinsatC24) were serially diluted in water. Human DCs (2.5×10^5 in 200 μl) in 48-well plates were pre-treated with different concentrations of compounds or culture medium alone, in RPMI 1640 medium […] for 30 min at 37° C. They were exposed to DV-2 at a multiplicity of infection of 1.0, for 2 h at 37° C. Cells were washed and cultured in complete RPMI medium (condition 1) or in complete medium containing the tested compounds (TriManC24, TriMannsatC24) (condition 2). After 48 h, supernatants were titered and cells were subjected to intracellular detection of viral antigens. DCs were fixed with 4% (v/v) paraformaldehyde and permeabilized with 0.1% (v/v) Triton X-100 for 3 min at room temperature. After washing, they were labeled with mouse anti-DV type 2 monoclonal antibody (3H5.1, Millipore) and stained with APC -conjugated rat anti-mouse IgG1. Fluorescence intensity of the cells was analyzed by flow cytometry (FACSCalibur, Becton Dickinson), using the Cell Quest Pro software.
There are four different dengue serotypes (1-4), and we have used DV type 2 (DV2) to further investigate the ability of the compounds of the invention (TriManC24 and TriManinsatC24) to inhibit the infection of human DCs. These cells were pre-treated with different concentrations of compounds or culture medium alone, for 30 min at 37° C. They were then exposed to DV2 for 2 hours at 37° C. Cells were washed to remove excess virions and compounds, and further cultured either in the absence (condition 1) or in the presence (condition 2) of the tested compounds. After 48 hours, cells were subjected to intracellular detection of viral antigens, and supernatants were titrated (not shown). […] FIG. 3A and FIG. 3B show the percentage of infected DCs when incubated with distinct concentrations of TriManinsatC24 in condition 1 and in condition 2, respectively. The histograms clearly show the protecting effects of TriManinsatC24, in particular in condition 2 wherein TriManinsatC24 at 10, 50 and 100 μM enabled the percentage of infected DCs to be reduced down to 40%, 20% and 2% respectively.

[5] = system: HIV-1 (R5 strain); test: HIV-1 cis-infection and replication in DCs (p24Gag ELISA); assay type: cell-based; conditions: 10 and 100 μM, p24Gag in supernatant
Method: Human monocyte-derived dendritic cells (2×10^5; 300 μL) in RPMI 1640 medium containing 10% FBS were pre-treated with either anti-DC-SIGN antibodies (clone AZND1, Beckman-Coulter; 10 μg/mL) or compounds TriManC24 and TriManC24insat (10 and 100 μM) for 30 min at 37° C., before inoculation with HIV-1 (R5 strain; 100 ng of p24Gag). After 3 h, cells were pelleted and extensively washed to remove excess virus and compounds. On day 2, 4 and 7 after infection, cells were pelleted, an aliquot of the supernatant was removed and kept at −20° C., and half of the supernatant was replaced with fresh medium. Viral replication was monitored by measuring p24Gag levels in the culture supernatant by an enzyme-linked immunosorbent assay (ELISA, Innogenetics). […] As shown in the case of Dengue virus, the compounds of the invention may also interfere with HIV cis-infection. […] Discussion

Row | KD (μM) [1] | KD (μM) ([1]; listed as TriDimanC24) | binding to DC-SIGN CRD (in words) [1] | Compound | Kd [1] [nM] | ability to form micelles (in words) [2] | residual level of trans-infection [3] [%] | residual level of trans-infection ([3]; HIV-1 R5, highest concentrations, relative to medium alone) [%] | inhibition of HIV-1 trans-infection (in words) ([3]; HIV-1 R5 where stated) | inhibition of Dengue virus infection of DCs (in words) [4] | percentage of infected DCs ([4]; condition 2, 10 μM) [%] | percentage of infected DCs ([4]; condition 2, 50 μM) [%] | percentage of infected DCs ([4]; condition 2, 100 μM) [%] | inhibition of HIV-1 cis-infection / replication in DCs (in words) [5] | inhibition of HIV-1 cis-infection / replication in DCs (in words) ([5]; listed as TriManC24insat)
1 | low micromolar range | Sub-micromolar |  | CCCCCCCCCCCCCCCCCCCCCCCCC(=O)NC(COCCC(=O)NCCOCCOCCOCCOC1OC(CO)C(O)C(O)C1OC1OC(CO)C(O)C(O)C1O)(COCCC(=O)NCCOCCOCCOCCOC1OC(CO)C(O)C(O)C1OC1OC(CO)C(O)C(O)C1O)COCCC(=O)NCCOCCOCCOCCOC1OC(CO)C(O)C(O)C1OC1OC(CO)C(O)C(O)C1O (stereo not drawn) [TriDiManC24] | 3250 | unable to form micelles; also recorded: failed to form micelles | 40 |  |  |  |  |  |  |  | 
2 |  |  |  | CCCCCCCCCCCCC#CC#CCCCCCCCCC(=O)NC(COCCC(=O)NCCOCCOCCOCCOC1OC(CO)C(O)C(O)C1O)(COCCC(=O)NCCOCCOCCOCCOC1OC(CO)C(O)C(O)C1O)COCCC(=O)NCCOCCOCCOCCOC1OC(CO)C(O)C(O)C1O (stereo not drawn) [TriManinsatC24] | 470 |  |  | 2 | almost fully blocked HIV trans-infection at the highest concentrations | able to inhibit the direct infection of DCs by Dengue virus | 40 | 20 | 2 | inhibit | decreases the amount of HIV R5 replication
3 |  |  | bound efficiently | mannan [reference compound] |  |  |  |  |  |  |  |  |  |  | 
